“And” between values parts separate entries of the source, which are not always exact repeats. Identical values can stand only once.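 Results reflect a 48-hour exposure of cells in 96-well plates to compound at five concentrations. At the GI50, growth is halved. The concentration for full growth arrest is given as TGI.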
Assays:
Experiment in all cases: growth of human tumour cells (NCI), 48 h
[1] = tested on: HT29 colon
[2] = tested on: NCI-H226 lung
[3] = tested on: UO-31 renal
[4] = tested on: DU-145 prostate
[5] = tested on: SK-MEL-2 melanoma
[6] = tested on: RPMI-8226 leukemia
[7] = tested on: A549 NSCLC
[8] = tested on: BT-549 breast
[9] = tested on: CCRF-CEM leukemia
[10] = tested on: OVCAR-8 ovarian

Row | SMILES | GI50 [1] | TGI [1] | GI50 [2] | TGI [2] | GI50 [3] | TGI [3] | GI50 [4] | TGI [4] | GI50 [5] | TGI [5] | GI50 [6] | TGI [6] | GI50 [7] | TGI [7] | GI50 [8] | TGI [8] | GI50 [9] | TGI [9] | GI50 [10] | TGI [10]
1 | COc1ccc(/C(C#N)=C2C=C/C(=N/O)c3ccccc3\2)cc1 | 0.705 µM | 4.53 µM | 3.71 µM | 17 µM | 0.593 µM | 15.3 µM | 0.34 µM | 8.85 µM | 0.415 µM | 12.3 µM | 0.371 µM | 9.76 µM | 0.339 µM | 13.4 µM | 0.333 µM | 8.18 µM | 0.254 µM | 12.6 µM | 0.327 µM | 13.1 µM
2 | COC(=O)c1ccc(NC(=O)Oc2ccc(N(CCCl)CCCl)cc2)cc1 | 16.5 µM | > 100 µM | 12.1 µM | 50.6 µM | 4.86 µM | 29.7 µM | 3.6 µM | 19.9 µM | 20 µM | 52.5 µM | 6.5 µM | > 100 µM | 1.65 µM | > 100 µM | 10.2 µM | > 100 µM | 0.782 µM | > 100 µM | 4.34 µM | 84.6 µM
3 | CCCCCCCCCCCCCC[C@@H](O)[C@H]1CC[C@H]([C@H]2CC[C@H]([C@H](O)CCCCCC[C@@H](O)CC3=C[C@H](C)OC3=O)O2)O1 | > 25 µM | 3.3 µM and > 25 µM | 1.71 µM | 5.04 µM and > 25 µM | 1.21 µM | 2.59 µM and > 25 µM | > 25 µM | > 25 µM | 1.52 µM | 3.86 µM and > 25 µM | 2.16 µM | > 25 µM | 1.59 µM | > 25 µM | 1.88 µM | 4.86 µM and > 25 µM | 2.06 µM | > 25 µM | > 25 µM | 3.94 µM and > 25 µM
4 | CN(Cc1cnc2nc(N)nc(N)c2n1)c1ccc(C(=O)NC(CCC(=O)O)C(=O)O)cc1Br (stereo not drawn) | < 0.01 µM | > 100 µM | < 0.01 µM | > 96.4 µM | < 0.01 µM | – | < 0.01 µM | > 100 µM | < 0.01 µM | > 100 µM | < 0.01 µM | > 100 µM | < 0.01 µM | > 100 µM | < 0.01 µM | 2.5 µM | < 0.01 µM | > 44.5 µM | < 0.01 µM | > 100 µM
5 | COc1cc2nc3cc([N+](=O)[O-])ccc3c(NCCNCC(C)(C)O)c2cc1OC | 0.327 µM | 1.4 µM | 1.28 µM | 4.05 µM | 1.85 µM | 5.93 µM | 0.44 µM | 2.34 µM | 0.432 µM | 1.75 µM | 1.49 µM | 5.8 µM | 1.22 µM | 5.64 µM | 1.84 µM | 4.14 µM | 0.573 µM | 5.13 µM | 0.769 µM | 4.48 µM
6 | CCN(CC)Cc1cc2[nH]c3c4ccc(Cl)cc4ncc3c2cc1OC | 1.78 µM and 1.91 µM | 5.6 µM and 4.82 µM | 14.4 µM and 15.1 µM | 28.8 µM and 28.5 µM | 4.25 µM and 1.59 µM | 8.93 µM and 3.83 µM | 3 µM and 2.46 µM | 9.18 µM and 6.38 µM | 7.39 µM and 16.5 µM | 16.6 µM and 31.6 µM | 1.26 µM and 1.87 µM | 5.09 µM and 4.56 µM | 3.46 µM and 3.16 µM | 13.3 µM and 10.5 µM | 13.7 µM and 16 µM | 27.2 µM and 29.6 µM | 2.52 µM and 1.8 µM | > 19.7 µM and 4.57 µM | 3.63 µM and 2.5 µM | 12.2 µM and 7.41 µM
7 | CC1=C(C(=O)Nc2ccc(Cl)c(C(=O)OC(C)C)c2)SCCO1 | – | 50.8 µM | – | > 77.4 µM | – | 73 µM | – | > 100 µM | – | 75.4 µM | – | 67.7 µM | – | 65.8 µM | – | > 100 µM | – | 65.1 µM | – | > 100 µM
8 | CSc1ccc2c(c1)C(N1CCN(C)CC1)Cc1ccccc1S2 (stereo not drawn) | 1.8 µM | 6.84 µM and 3.65 µM | 1.8 µM | 24.9 µM and 3.94 µM | 1.8 µM | 13.8 µM and 5.44 µM | 2.04 µM | 31.4 µM and 4.38 µM | 1.95 µM | 7.82 µM and 3.8 µM | – | 4.12 µM and 4.58 µM | 2.17 µM | 24.2 µM and 5.72 µM | 2.84 µM | 17.6 µM and 9.3 µM | 1.7 µM | 0.845 µM and 3.84 µM | 2.07 µM | 22.8 µM and 5.35 µM
9 | Cc1cc(Cl)nc(N(CCCNc2ccnc3cc(Cl)ccc23)Cc2ccco2)n1 | 1.38 µM | 6.46 µM | 1.3 µM | 6.91 µM | 1.08 µM | 5.93 µM | 3.48 µM | 14.7 µM | 2.82 µM | 9.19 µM | 1.04 µM | 3.19 µM | 3.28 µM | 13.9 µM | 2.16 µM | 6.47 µM | 2.32 µM | 8.93 µM | 2.05 µM | 6.31 µM
10 | CCOC(=O)COc1ccc2c(C)cc(=O)oc2c1 | – | > 100 µM | – | > 100 µM | – | > 100 µM | – | > 100 µM | – | > 100 µM | – | > 100 µM | – | > 100 µM | – | > 100 µM | – | > 100 µM | – | > 100 µM
11 | CN(C)C(=S)SCC(=O)Nc1ccccc1 | – | > 100 µM | – | > 100 µM | – | > 100 µM | – | > 100 µM | – | > 100 µM | – | > 100 µM | – | > 100 µM | – | > 100 µM | – | > 100 µM | – | > 100 µM
12 | COc1ccc(N(C)c2nc(N)nc3sc4c(c23)CCCC4)cc1 | < 0.01 µM | 12.1 µM | 0.616 µM | 22.3 µM | < 0.01 µM | 14.2 µM | < 0.0166 µM | 11.2 µM | 0.0441 µM | 17.2 µM | < 0.01 µM | 15.6 µM | < 0.0149 µM | 17.3 µM | 0.0123 µM | 10.5 µM | < 0.01 µM | 55.5 µM | < 0.0171 µM | 14.9 µM
13 | Cn1ncc(Cl)c1-c1cc(C(=O)N[C@H](CN)Cc2ccc(F)c(F)c2)oc1Cl | 1.15 µM and 0.346 µM | 15 µM and > 10 µM | 5.91 µM and 2.29 µM | 24.7 µM and > 10 µM | 0.97 µM and 0.36 µM | 11.7 µM and > 7.68 µM | 4.25 µM and 2.48 µM | 17.8 µM and > 10 µM | 2.44 µM and 1.77 µM | 6.82 µM and 4.72 µM | 2.05 µM and 2.62 µM | 7.96 µM and > 7.98 µM | 1.57 µM and 1.2 µM | 15 µM and > 10 µM | 0.511 µM and 0.412 µM | 3.71 µM and 3.02 µM | 0.197 µM and 0.196 µM | 11.8 µM and > 10 µM | 9.13 µM and 4.99 µM | 23.7 µM and > 10 µM
14 | Cc1cc([N+](=O)[O-])c2ccccc2[n+]1[O-] | 0.066 µM and 0.0948 µM | 0.328 µM and 0.393 µM | 0.571 µM and 0.927 µM | 3.27 µM and 4.62 µM | 0.215 µM and 0.22 µM | 0.681 µM and 0.903 µM | 0.073 µM and 0.0815 µM | 0.325 µM and 0.564 µM | 0.209 µM and 0.212 µM | 0.471 µM and 0.404 µM | 0.0602 µM and 0.0308 µM | 0.359 µM and 0.0948 µM | 0.245 µM and 0.204 µM | 0.807 µM and 0.905 µM | 0.216 µM and 0.388 µM | 0.879 µM and 1.63 µM | 2.24 µM and 0.65 µM | > 47.8 µM and 7.18 µM | 0.683 µM and 0.688 µM | 3.88 µM and 4.86 µM

From PubChem BioAssay (NCI)
